Assay results reported in PMC8876975, “EGFR and COX-2 Dual Inhibitor: The Design, Synthesis, and Biological Evaluation of Novel Chalcones” (Molecules, 2022).
Like-named read-outs stand apart in the source and are kept apart here.

Key:
[1] = system: human malignant melanoma (A375); test: MTT cytotoxicity assay, A375; assay type: cell-based; details: Homo sapiens, A-375, 72 h, read-out: Antiproliferative Activity IC50 ± SEM, A375
[2] = system: pancreatic ductal cancer (Panc-1); test: MTT cytotoxicity assay, Panc-1; assay type: cell-based; details: Homo sapiens; Panc-1, MTT, 72 h; read-out: Antiproliferative Activity IC50 ± SEM, Panc-1
[3] = Cell viability % (MTT, normal cell line); details: human, MRC5 normal fetal lung fibroblast cells
[4] = system: human colon cancer (HT-29); test: MTT cytotoxicity assay, HT-29; assay type: cell-based; details: Homo sapiens; HT-29, MTT, 72 h; read-out: Antiproliferative Activity IC50 ± SEM, HT-29
lung cancer (H-460) = test: MTT cytotoxicity assay, H-460; assay type: cell-based; details: Homo sapiens, NCI-H460; H-460, MTT, 72 h; read-out: Antiproliferative Activity IC50 ± SEM, H-460
[5] = system: pancreatic cancer (PaCa-2); test: MTT cytotoxicity assay, PaCa-2; assay type: cell-based; details: PaCa-2, MTT, 72 h; read-out: Antiproliferative Activity IC50 ± SEM, PaCa-2
Sheep-derived COX-1 = target: T1, Sheep-derived COX-1 (Ovis aries, UniProt P05979); test: Cyclooxygenase assay (PGE2 quantification), COX-1
T1 sequence (P05979 25-600): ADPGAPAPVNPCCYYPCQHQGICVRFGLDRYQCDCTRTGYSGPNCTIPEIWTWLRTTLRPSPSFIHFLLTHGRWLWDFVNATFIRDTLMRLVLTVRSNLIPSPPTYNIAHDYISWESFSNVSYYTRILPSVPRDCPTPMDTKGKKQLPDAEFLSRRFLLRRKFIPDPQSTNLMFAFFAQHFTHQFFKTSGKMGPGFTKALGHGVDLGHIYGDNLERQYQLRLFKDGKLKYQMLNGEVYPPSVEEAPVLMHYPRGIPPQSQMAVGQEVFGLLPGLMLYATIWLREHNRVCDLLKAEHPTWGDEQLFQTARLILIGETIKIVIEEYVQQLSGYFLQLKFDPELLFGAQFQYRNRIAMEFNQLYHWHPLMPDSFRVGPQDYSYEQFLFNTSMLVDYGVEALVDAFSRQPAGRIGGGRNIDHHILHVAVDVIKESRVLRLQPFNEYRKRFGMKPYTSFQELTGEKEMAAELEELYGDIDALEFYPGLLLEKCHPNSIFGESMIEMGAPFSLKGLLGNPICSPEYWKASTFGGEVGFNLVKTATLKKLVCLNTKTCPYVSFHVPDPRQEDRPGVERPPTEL

[6] = target: T2, human recombinant sPLA2-V (Homo sapiens, UniProt P39877); test: Secretory PLA2-V activity assay (Ellman's photometric method)
T2 sequence (P39877 21-138): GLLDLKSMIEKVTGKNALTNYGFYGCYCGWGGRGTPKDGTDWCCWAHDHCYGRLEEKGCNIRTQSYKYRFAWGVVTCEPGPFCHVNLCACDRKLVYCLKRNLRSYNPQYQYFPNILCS

human recombinant COX-2 = target: T3, human recombinant COX-2 (Homo sapiens, UniProt P35354); test: Cyclooxygenase assay (PGE2 quantification), COX-2; assay type: biochemical; details: mean ± SD; n = 3
T3 construct: purchased Cayman Chemicals
T3 sequence (P35354 18-604): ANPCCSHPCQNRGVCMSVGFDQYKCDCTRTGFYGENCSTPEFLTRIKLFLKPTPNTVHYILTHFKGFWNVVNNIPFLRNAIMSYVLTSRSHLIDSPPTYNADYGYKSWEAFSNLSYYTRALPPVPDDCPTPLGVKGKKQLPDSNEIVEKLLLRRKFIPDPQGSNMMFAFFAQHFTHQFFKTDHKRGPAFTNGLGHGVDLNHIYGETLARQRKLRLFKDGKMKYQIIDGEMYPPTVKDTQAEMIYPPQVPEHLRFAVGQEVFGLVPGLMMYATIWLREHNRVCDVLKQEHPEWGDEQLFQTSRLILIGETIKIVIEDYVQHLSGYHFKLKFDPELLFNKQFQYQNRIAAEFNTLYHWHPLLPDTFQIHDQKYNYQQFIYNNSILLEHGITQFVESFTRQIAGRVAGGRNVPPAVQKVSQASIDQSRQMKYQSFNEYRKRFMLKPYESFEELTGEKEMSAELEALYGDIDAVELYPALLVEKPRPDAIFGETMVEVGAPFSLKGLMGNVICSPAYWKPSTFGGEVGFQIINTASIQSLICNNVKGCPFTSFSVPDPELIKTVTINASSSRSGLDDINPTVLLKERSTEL

EGFR = target: T4, EGFR (Homo sapiens, UniProt P00533); test: EGFR kinase inhibition assay (EGFR Kinase Assay Kit); assay type: biochemical; details: triplicates; read-out: EGFR Inhibition IC50 ± SEM
T4 construct: purchased PBS Bioscience (so in the source)

TNF-α = test: ELISA, LPS-induced TNF-α release in RAW264.7 macrophages; assay type: cell-based, mouse; details: for inhibition at 10 µM: Mus musculus, RAW264.7, RAW 264.7, compound 10 µM for 2 h, then LPS 0.5 µg/mL for 22 h; for Relative Amount of LPS (TNF-α): RAW 264.7, compound 10 µM, TNF-α relative to LPS control = 100
IL-6 = test: ELISA, LPS-induced IL-6 release in RAW264.7 macrophages; assay type: cell-based, mouse; details: for inhibition at 10 µM: Mus musculus, RAW264.7, RAW 264.7, compound 10 µM for 2 h, then LPS 0.5 µg/mL for 22 h; for Relative Amount of LPS (IL-6): RAW 264.7, compound 10 µM, IL-6 relative to LPS control = 100

T4 sequence (P00533 25-1210): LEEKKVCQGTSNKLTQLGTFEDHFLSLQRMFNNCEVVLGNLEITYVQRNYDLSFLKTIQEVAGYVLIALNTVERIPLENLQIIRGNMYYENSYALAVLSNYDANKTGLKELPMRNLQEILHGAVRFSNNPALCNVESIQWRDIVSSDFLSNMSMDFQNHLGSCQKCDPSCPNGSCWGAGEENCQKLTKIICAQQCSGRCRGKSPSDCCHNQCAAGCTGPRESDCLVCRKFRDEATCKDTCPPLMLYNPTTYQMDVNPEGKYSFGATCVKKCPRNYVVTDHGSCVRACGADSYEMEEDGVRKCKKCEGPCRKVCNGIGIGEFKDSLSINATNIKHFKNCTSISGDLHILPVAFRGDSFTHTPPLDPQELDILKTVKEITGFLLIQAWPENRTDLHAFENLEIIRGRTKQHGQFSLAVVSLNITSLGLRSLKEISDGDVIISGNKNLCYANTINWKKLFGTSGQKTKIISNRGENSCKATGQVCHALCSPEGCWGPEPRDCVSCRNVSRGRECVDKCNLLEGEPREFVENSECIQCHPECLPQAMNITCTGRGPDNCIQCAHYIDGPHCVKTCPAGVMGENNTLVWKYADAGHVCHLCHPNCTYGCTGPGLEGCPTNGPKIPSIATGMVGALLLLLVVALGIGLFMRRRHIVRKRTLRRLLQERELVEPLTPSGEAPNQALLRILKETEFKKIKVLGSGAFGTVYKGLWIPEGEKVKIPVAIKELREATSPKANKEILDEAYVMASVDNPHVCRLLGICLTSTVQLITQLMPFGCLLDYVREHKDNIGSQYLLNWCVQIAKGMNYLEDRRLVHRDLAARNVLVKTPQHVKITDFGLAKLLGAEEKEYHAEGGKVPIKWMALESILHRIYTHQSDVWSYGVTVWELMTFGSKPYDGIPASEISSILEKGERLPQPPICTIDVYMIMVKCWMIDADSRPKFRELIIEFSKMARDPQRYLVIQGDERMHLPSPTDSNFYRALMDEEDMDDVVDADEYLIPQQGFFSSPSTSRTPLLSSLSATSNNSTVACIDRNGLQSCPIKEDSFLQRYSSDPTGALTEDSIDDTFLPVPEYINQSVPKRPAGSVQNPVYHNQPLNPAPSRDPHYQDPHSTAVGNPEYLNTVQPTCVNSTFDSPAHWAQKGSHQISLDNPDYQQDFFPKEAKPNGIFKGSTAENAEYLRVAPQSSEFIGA

IC50 (Sheep-derived COX-1) | IC50 [6] | IC50 (human recombinant COX-2) | IC50 (EGFR) | Structure (SMILES) | IC50 [1] | IC50 [2] | viability at 72 h [3] | IC50 [4] | IC50 (lung cancer (H-460)) | IC50 [5] | inhibition at 10 µM (TNF-α) | Relative Amount of LPS (TNF-α) (TNF-α) | inhibition at 10 µM (IL-6) | Relative Amount of LPS (IL-6) (IL-6) | IC50 ([6]; read-out: sPLA2-V IC50, mean ± SD, n = 3)
– | – | – | – | CC(=O)c1cccc(/N=N/c2ccc(O)cc2)c1 [Compound A1] | 9.3 ± 1.9 µM | 9.1 ± 1.8 µM | 80.3 ± 1.6% | 8.3 ± 2.1 µM | 7.4 ± 2.2 µM | 8.6 ± 1.2 µM | – | – | – | – | –
22.2 ± 2.45 µM | 7.25 ± 1.24 µM | 27.9 ± 1.65 µM | – | CC(=O)c1cccc(/N=N/c2ccc(O)cc2O)c1 [Compound A2, (E)-1-(3-((2,4-Dihydroxyphenyl)daizenyl)phenyl)ethan-1-one] | 8.4 ± 2.1 µM | 9.6 ± 2 µM | 90.4 ± 1.9% | 9.2 ± 2.5 µM | 5.9 ± 2.4 µM | 9.6 ± 1.5 µM | – | – | – | – | –
0.21 ± 0.07 µM | 2.14 ± 0.94 µM | 2.4 ± 0.8 µM | 4.3 ± 0.7 µM | CC(=O)c1cccc(/N=N/c2ccc(O)c(C(=O)O)c2)c1 [Compound A3, (E)-5-((3-Acetylphenyl)diazenyl)-2-hydroxybenzoic acid] | 4 ± 1.5 µM | 2.2 ± 0.9 µM | 79.6 ± 4.5% | 1.8 ± 0.5 µM | 1.8 ± 0.4 µM | 2.4 ± 1.5 µM | 79% | 21 | 72% | 28 | –
11.1 ± 1.05 µM | 14.1 ± 1.52 µM | 16.8 ± 2.43 µM | 3.2 ± 0.8 µM | CC(=O)c1cccc(/N=N/c2ccc(O)c3ccccc23)c1 [Compound A4, (E)-1-(3-((4-Hydroxynaphthalen-1-yl)diazenyl)phenyl)ethan-1-one] | 4.4 ± 1.9 µM | 2 ± 0.4 µM | 87.4 ± 1.7% | 2.7 ± 0.6 µM | 3.4 ± 1 µM | 2 ± 0.6 µM | 49% | 51 | 46% | 54 | –
9.23 ± 1.64 µM | 4.24 ± 1.16 µM | 14.2 ± 1.79 µM | – | CC(=O)c1cccc(/N=N/c2c(O)ccc3ccccc23)c1 [Compound A5, (E)-1-(3-((2-Hydroxynaphthalen-1-yl)diazenyl)phenyl)ethan-1-one] | 9.6 ± 2.4 µM | 9.6 ± 1.8 µM | 88.2 ± 1.2% | 11.9 ± 2.5 µM | 9.2 ± 1.2 µM | 10.5 ± 1.9 µM | – | – | – | – | –
4.85 ± 1.2 µM | 7.42 ± 1.41 µM | 5.21 ± 1.2 µM | – | CC(=O)c1cccc(/N=N/c2ccc(O)c3ncccc23)c1 [Compound A6, (E)-1-(3-((8-Hydroxyquinolin-5-yl)diazenyl)phenyl)ethan-1-one] | 9.5 ± 1.5 µM | 6.9 ± 2.1 µM | 82.5 ± 1.7% | 7.6 ± 1.4 µM | 8.8 ± 2.3 µM | 9.5 ± 1.9 µM | – | – | – | – | –
7.52 ± 1.42 µM | 24.7 ± 1.59 µM | 29.4 ± 1.73 µM | 5.8 ± 1.1 µM | O=C(/C=C/c1ccc(F)cc1)c1cccc(/N=N/c2ccc(O)cc2)c1 [Compound C7, (E)-3-(4-Fluorophenyl)-1-(3-((E)-(4-hydroxyphenyl)diazenyl)phenyl) prop-2-en-1-one] | 5.3 ± 1.5 µM | 4.8 ± 1.6 µM | 82.6 ± 1.2% | 4.5 ± 1.7 µM | 5 ± 1.4 µM | 2.9 ± 1.7 µM | – | – | – | – | –
5.14 ± 1.27 µM | 14.2 ± 1.32 µM | 32.1 ± 1.4 µM | 4.9 ± 0.9 µM | O=C(/C=C/c1ccc(F)cc1)c1cccc(/N=N/c2ccc(O)cc2O)c1 [Compound C8, (E)-1-(3-((E)-(2,4-Dihydroxyphenyl)diazenyl)phenyl)-3-(4-fluorophenyl) prop-2-en-1-one] | 2.6 ± 0.5 µM | 1.9 ± 0.7 µM | 83.5 ± 1.2% | 2.5 ± 7 µM | 2.2 ± 0.5 µM | 2.8 ± 0.6 µM | – | – | – | – | –
8.57 ± 1.89 µM | 2.74 ± 1.24 µM | 1.27 ± 0.3 µM | 0.8 ± 0.3 µM | O=C(/C=C/c1ccc(F)cc1)c1cccc(/N=N\c2ccc(O)c(C(=O)O)c2)c1 [Compound C9, 5. -((Z)-(3-((E)-3-(4-Fluorophenyl)acryloyl)phenyl)diazenyl)-2-hydroxybenzoic acid] | 3.2 ± 1.1 µM | 1.8 ± 0.4 µM | 90.2 ± 4.1% | 1.2 ± 0.3 µM | 1.2 ± 0.2 µM | 2.1 ± 0.3 µM | 74% | 26 | 77% | 23 | –
18.3 ± 1.27 µM | 5.06 ± 1.2 µM | 19.2 ± 1.52 µM | – | CN(C)c1ccc(/C=C/C(=O)c2cccc(/N=N/c3ccc(O)cc3)c2)cc1 [Compound C13, (E)-3-(4-(Dimethylamino)phenyl)-1-(3-((E)-(4-hydroxyphenyl)diazenyl)phenyl)prop-2-en-1-one] | 8.4 ± 1.5 µM | 8.7 ± 1.4 µM | 90.6 ± 1.7% | 7.8 ± 1.8 µM | 6.6 ± 1.2 µM | 7.4 ± 1.7 µM | – | – | – | – | –
11.5 ± 1.2 µM | 7.04 ± 1.29 µM | 5.14 ± 1.1 µM | – | CN(C)c1ccc(/C=C/C(=O)c2cccc(/N=N/c3ccc(O)cc3O)c2)cc1 [Compound C14, (E)-1-(3-((E)-(2,4-Dihydroxyphenyl)diazenyl)phenyl)-3-(4-(dimethylamino)phenyl) prop-2-en-1-one] | 4.9 ± 1.6 µM | 4.6 ± 1.7 µM | 89.4 ± 2.1% | 6.5 ± 1.4 µM | 5.2 ± 1.3 µM | 5.9 ± 1.9 µM | – | – | – | – | –
49.1 ± 2.69 µM | 9.45 ± 1.67 µM | 5.29 ± 1.1 µM | – | CN(C)c1ccc(/C=C/C(=O)c2cccc(/N=N\c3c(O)ccc4ccccc34)c2)cc1 [Compound C17, (E)-3-(4-(dimethylamino)phenyl)-1-(3-((Z)-(2-hydroxynaphthalen-1-yl)diazenyl)phenyl) prop-2-en-1-one] | 8.8 ± 2.5 µM | 2.5 ± 1.2 µM | 87.2 ± 1.4% | 9.2 ± 1.6 µM | 5.6 ± 2.1 µM | 7.5 ± 1.9 µM | – | – | – | – | –
40.2 ± 3.42 µM | 8.29 ± 0.88 µM | 3.2 ± 0.6 µM | – | CN(C)c1ccc(/C=C/C(=O)c2cccc(/N=N\c3ccc(O)c4ncccc34)c2)cc1 [Compound C18, (E)-3-(4-(dimethylamino)phenyl)-1-(3-((Z)-(8-hydroxyquinolin-5-yl)diazenyl)phenyl) prop-2-en-1-one] | 8.8 ± 2.5 µM | 6.4 ± 0.4 µM | 88.4 ± 2.9% | 6.7 ± 0.6 µM | 6.3 ± 1.4 µM | 6.4 ± 1.5 µM | 71% | 29 | 73% | – | –
– | – | – | – | C[C@@H]1C[C@H]2[C@@H]3CCC4=CC(=O)C=C[C@]4(C)[C@@]3(F)[C@@H](O)C[C@]2(C)[C@@]1(O)C(=O)CO [Dexamethasone, reference compound] | – | – | – | – | – | – | – | – | – | – | 0.57 ± 0.06 µM
– | – | – | – | C#Cc1cccc(Nc2ncnc3cc(OCCOC)c(OCCOC)cc23)c1 [Erlotinib, reference compound] | 4.14 ± 1.2 µM | 0.05 ± 0.02 µM | – | 0.07 ± 0.04 µM | 0.04 ± 0.02 µM | 0.06 ± 0.04 µM | – | – | – | – | –
